Reference: US12077503B2, “Substituted cyclic amides and their use as herbicides” (FMC CORPORATION, priority 2015, dated 2024)
Like-named read-outs stand apart in the source and are kept apart here.

Columns and labels:
Type in all cases: in vivo
rice (Oryra sativa) = assay: Test B flooded paddy test; conditions: Oryza sativa, Flood, 250 g ai/ha
Procedure, shortened: (§1)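 Visual ratings (0 none to 100 complete control) are relative to untreated plants, taken 13–15 d after treatment in a greenhouse. Test material went straight into floodwater standing 3 cm above the soil, kept constant, on plants at the 2-leaf stage.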

[1] = test system: ducksalad (Heteranthera limosa); assay: Test B flooded paddy test; conditions: Heteranthera limosa, Flood, 250 g ai/ha
Procedure, shortened: as §1

[2] = test system: barnyardgrass (Echinochloa crus-galli); assay: Test B flooded paddy test; conditions: Echinochloa crus-galli, Flood, 250 g ai/ha
Procedure, shortened: as §1

[3] = test system: sedge, umbrella (small-flower umbrella sedge, Cyperus difformis); assay: Test B flooded paddy test; conditions: Cyperus difformis, Flood, 250 g ai/ha
Procedure, shortened: as §1

[4] = test system: wheat (Triticum aestivum); assay: Test A postemergence; conditions: Triticum aestivum, post-emergence, 240 h; for plant injury at 125 g/ha: 125 g ai/ha; for plant injury at 500 g/ha: 500 g ai/ha, visual injury, approx. 10 d
Procedure, shortened: (§2)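 Each rating is a visual injury score from 0 to 100 given about 10 d after treatment, judged against untreated controls kept alongside in the greenhouse. In loam soil–sand blend, seeds got a preemergence directed soil spray, while postemergence plants were 2 to 10 cm tall at spraying.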

[5] = test system: Galium (catchweed bedstraw, Galium aparine); assay: Test A postemergence; conditions: Galium, post-emergence, 240 h; for pest or weed control at 125 g/ha: 125 g ai/ha; for pest or weed control at 500 g/ha: 500 g ai/ha, visual injury, approx. 10 d
Procedure, shortened: as §2

[6] = test system: giant foxtail (Setaria faberii); assay: Test A postemergence; conditions: Setaria faberi, post-emergence, 240 h; for pest or weed control at 125 g/ha: 125 g ai/ha; for pest or weed control at 500 g/ha: 500 g ai/ha, visual injury, approx. 10 d
Procedure, shortened: as §2

[7] = test system: barnyardgrass (Echinochloa crus-galli); assay: Test A postemergence; conditions: Echinochloa crus-galli, post-emergence, 240 h; for pest or weed control at 125 g/ha: 125 g ai/ha
Procedure, shortened: as §2

[8] = test system: giant foxtail (Setaria faberii); assay: Test A preemergence; conditions: Setaria faberi, pre-emergence, 240 h; for pest or weed control at 125 g/ha: 125 g ai/ha; for pest or weed control at 500 g/ha: 500 g ai/ha
Procedure, shortened: as §2

[9] = test system: barnyardgrass (Echinochloa crus-galli); assay: Test A preemergence; conditions: Echinochloa crus-galli, pre-emergence, 240 h; for pest or weed control at 125 g/ha: 125 g ai/ha; for pest or weed control at 500 g/ha: 500 g ai/ha
Procedure, shortened: as §2

[10] = test system: ragweed (common ragweed, Ambrosia elatior); assay: Test A preemergence; conditions: Ambrosia artemisiifolia, pre-emergence, 240 h; for pest or weed control at 125 g/ha: 125 g ai/ha; for pest or weed control at 500 g/ha: 500 g ai/ha
Procedure, shortened: as §2

[11] = test system: ryegrass, Italian (Italian ryegrass, Lolium multiflorum); assay: Test A preemergence; conditions: Lolium multiflorum, pre-emergence, 240 h; for pest or weed control at 125 g/ha: 125 g ai/ha; for pest or weed control at 500 g/ha: 500 g ai/ha
Procedure, shortened: as §2

[12] = test system: pigweed (Amaranthus retroflexus); assay: Test A preemergence; conditions: Amaranthus retroflexus, pre-emergence, 240 h; for pest or weed control at 125 g/ha: 125 g ai/ha; for pest or weed control at 500 g/ha: 500 g ai/ha
Kochia (Kochia scoparia) = assay: Test A preemergence; conditions: Bassia scoparia, pre-emergence, 240 h; for pest or weed control at 125 g/ha: 125 g ai/ha; for pest or weed control at 500 g/ha: 500 g ai/ha
Procedure, shortened: as §2

[13] = 360 h, visually evaluated after 13 to 15 d, read-out: Plant response rating, Rice (0 to 100 scale where 0 is no effect and 100 is complete control)
[14] = 360 h, visually evaluated after 13 to 15 d, read-out: Plant response rating, Ducksalad (0 to 100 scale where 0 is no effect and 100 is complete control)
[15] = 360 h, visually evaluated after 13 to 15 d, read-out: Plant response rating, Barnyardgrass (0 to 100 scale where 0 is no effect and 100 is complete control)
[16] = 360 h, visually evaluated after 13 to 15 d, read-out: Plant response rating, Sedge, Umbrella (0 to 100 scale where 0 is no effect and 100 is complete control)
[17] = Postemergence, visual rating about 10 d after treatment, read-out: Wheat plant response rating (0 to 100 scale)
[18] = Postemergence, 0 to 100 scale (0 no effect, 100 complete control), read-out: Plant response rating, Wheat
[19] = Postemergence, visual rating about 10 d after treatment, read-out: Galium plant response rating (0 to 100 scale)
[20] = Postemergence, 0 to 100 scale (0 no effect, 100 complete control), read-out: Plant response rating, Galium
[21] = Postemergence, visual rating about 10 d after treatment, read-out: Foxtail, Giant plant response rating (0 to 100 scale)
[22] = Postemergence, 0 to 100 scale (0 no effect, 100 complete control), read-out: Plant response rating, Foxtail, Giant
[23] = preemergence, 0 to 100 scale (0 no effect, 100 complete control), read-out: Plant response rating, Foxtail, Giant
[24] = Preemergence, 0 to 100 scale (0 no effect, 100 complete control), read-out: Plant response rating, Foxtail, Giant
[25] = preemergence, 0 to 100 scale (0 no effect, 100 complete control), read-out: Plant response rating, Barnyardgrass
[26] = Preemergence, 0 to 100 scale (0 no effect, 100 complete control), read-out: Plant response rating, Barnyardgrass
[27] = preemergence, 0 to 100 scale (0 no effect, 100 complete control), read-out: Plant response rating, Ragweed
[28] = Preemergence, 0 to 100 scale (0 no effect, 100 complete control), read-out: Plant response rating, Ragweed
[29] = preemergence, 0 to 100 scale (0 no effect, 100 complete control), read-out: Plant response rating, Ryegrass, Italian
[30] = Preemergence, 0 to 100 scale (0 no effect, 100 complete control), read-out: Plant response rating, Ryegrass, Italian
[31] = preemergence, 0 to 100 scale (0 no effect, 100 complete control), read-out: Plant response rating, Pigweed
[32] = Preemergence, 0 to 100 scale (0 no effect, 100 complete control), read-out: Plant response rating, Pigweed
[33] = preemergence, 0 to 100 scale (0 no effect, 100 complete control), read-out: Plant response rating, Kochia

Row | SMILES | pest or weed control at 250 g/ha (rice (Oryra sativa); [13]) [%] | pest or weed control at 250 g/ha [1, 14] [%] | pest or weed control at 250 g/ha [2, 15] [%] | pest or weed control at 250 g/ha [3, 16] [%] | plant injury at 125 g/ha [4, 17] [%] | plant injury at 500 g/ha [4, 18] [%] | pest or weed control at 125 g/ha [5, 19] [%] | pest or weed control at 500 g/ha [5, 20] [%] | pest or weed control at 125 g/ha [6, 21] [%] | pest or weed control at 500 g/ha [6, 22] [%] | pest or weed control at 500 g/ha [8, 23] [%] | pest or weed control at 125 g/ha [8, 24] [%] | pest or weed control at 500 g/ha [9, 25] [%] | pest or weed control at 125 g/ha [9, 26] [%] | pest or weed control at 500 g/ha [10, 27] [%] | pest or weed control at 125 g/ha [10, 28] [%] | pest or weed control at 500 g/ha [11, 29] [%] | pest or weed control at 125 g/ha [11, 30] [%] | pest or weed control at 500 g/ha [12, 31] [%] | pest or weed control at 125 g/ha [12, 32] [%] | other results
1 | CN1C[C@H](c2cccc([N+](=O)[O-])c2)[C@@H](C(=O)Nc2cccc(F)c2F)C1=O (racemic) [Compound 776] | – | – | – | – | – | – | – | – | – | – | – | – | – | – | – | – | – | – | – | – | pest or weed control at 250 g/ha (rice (Oryra sativa); scale of 0 to 100 where 0 is no effect and 100 is complete control, read-out: Rice plant response rating): 0%; pest or weed control at 250 g/ha ([1]; scale of 0 to 100 where 0 is no effect and 100 is complete control, read-out: Ducksalad plant response rating): 80%; pest or weed control at 250 g/ha ([2]; scale of 0 to 100 where 0 is no effect and 100 is complete control, read-out: Barnyardgrass plant response rating): 80%; pest or weed control at 250 g/ha ([3]; scale of 0 to 100 where 0 is no effect and 100 is complete control, read-out: Sedge, Umbrella plant response rating): 0%; plant injury at 125 g/ha ([4]; postemergence, visual injury after approximately 10 d, 0 to 100 scale (0 no effect, 100 complete control), read-out: Plant response rating, Wheat): 30%; pest or weed control at 125 g/ha ([5]; postemergence, visual injury after approximately 10 d, 0 to 100 scale (0 no effect, 100 complete control), read-out: Plant response rating, Galium): 20%; pest or weed control at 125 g/ha ([6]; postemergence, visual injury after approximately 10 d, 0 to 100 scale (0 no effect, 100 complete control), read-out: Plant response rating, Foxtail, Giant): 80%; pest or weed control at 125 g/ha ([7]; postemergence, visual injury after approximately 10 d, 0 to 100 scale (0 no effect, 100 complete control), read-out: Plant response rating, Barnyardgrass): 80%; pest or weed control at 125 g/ha ([8]; preemergence, visual rating after approx. 10 d, 0 to 100 scale where 0 is no effect and 100 is complete control, read-out: Plant response rating, Foxtail, Giant): 90%; pest or weed control at 500 g/ha ([8]; Preemergence, visual injury vs untreated controls after approximately 10 d, read-out: Foxtail, Giant plant response rating (0 to 100 scale where 0 is no effect and 100 is complete control)): 100%; pest or weed control at 125 g/ha ([9]; preemergence, visual rating after approx. 10 d, 0 to 100 scale where 0 is no effect and 100 is complete control, read-out: Plant response rating, Barnyardgrass): 90%; pest or weed control at 500 g/ha ([9]; Preemergence, visual injury vs untreated controls after approximately 10 d, read-out: Barnyardgrass plant response rating (0 to 100 scale where 0 is no effect and 100 is complete control)): 90%; pest or weed control at 125 g/ha ([10]; preemergence, visual rating after approx. 10 d, 0 to 100 scale where 0 is no effect and 100 is complete control, read-out: Plant response rating, Ragweed): 30%; pest or weed control at 500 g/ha ([10]; Preemergence, visual injury vs untreated controls after approximately 10 d, read-out: Ragweed plant response rating (0 to 100 scale where 0 is no effect and 100 is complete control)): 80%; pest or weed control at 125 g/ha ([11]; preemergence, visual rating after approx. 10 d, 0 to 100 scale where 0 is no effect and 100 is complete control, read-out: Plant response rating, Ryegrass, Italian): 20%; pest or weed control at 500 g/ha ([11]; Preemergence, visual injury vs untreated controls after approximately 10 d, read-out: Ryegrass, Italian plant response rating (0 to 100 scale where 0 is no effect and 100 is complete control)): 50%; pest or weed control at 125 g/ha ([12]; preemergence, visual rating after approx. 10 d, 0 to 100 scale where 0 is no effect and 100 is complete control, read-out: Plant response rating, Pigweed): 30%; pest or weed control at 500 g/ha ([12]; Preemergence, visual injury vs untreated controls after approximately 10 d, read-out: Pigweed plant response rating (0 to 100 scale where 0 is no effect and 100 is complete control)): 60%; pest or weed control at 125 g/ha (Kochia (Kochia scoparia); preemergence, visual rating after approx. 10 d, 0 to 100 scale where 0 is no effect and 100 is complete control, read-out: Plant response rating, Kochia): 50%; pest or weed control at 500 g/ha (Kochia (Kochia scoparia); Preemergence, visual injury vs untreated controls after approximately 10 d, read-out: Kochia plant response rating (0 to 100 scale where 0 is no effect and 100 is complete control)): 60%
2 | C=CN1C[C@H](c2ccc(C)c(F)c2)[C@@H](C(=O)Nc2cccc(F)c2F)C1=O (racemic) [Compound 1332] | 0 | 100 | 0 | 0 | 0 | 20 | 0 | 20 | 40 | 60 | 90 | 80 | 90 | 70 | 0 | 0 | 0 | 0 | 0 | 0 | pest or weed control at 125 g/ha ([7]; Postemergence, visual rating about 10 d after treatment, read-out: Barnyardgrass plant response rating (0 to 100 scale, 0 no effect, 100 complete control)): 50%; pest or weed control at 500 g/ha ([7]; Postemergence, 500 g ai/ha, visual injury, 0 to 100 scale (0 no effect, 100 complete control), approx. 10 d, read-out: Plant response rating, Barnyardgrass): 60%; pest or weed control at 500 g/ha (Kochia (Kochia scoparia); [33]): 0%; pest or weed control at 125 g/ha (Kochia (Kochia scoparia); Preemergence, 0 to 100 scale (0 no effect, 100 complete control), read-out: Plant response rating, Kochia): 0%
3 | COc1cc(OC)cc([C@H]2CN(C)C(=O)[C@@H]2C(=O)Nc2cccc(F)c2F)c1 [Compound 1370] | 20 | 70 | 60 | 0 | 40 | 70 | 40 | 50 | 90 | 90 | 90 | 90 | 90 | 90 | 80 | 40 | 90 | 80 | 20 | 0 | pest or weed control at 500 g/ha (Kochia (Kochia scoparia); [33]): 80%
